Laboratory results reported in patent publication US7816099B1, “Enzyme assay and use thereof” (Myrexis, Inc., priority 2005, dated 2010).

What was measured:
Mst4 kinase = target: T1, Mst4 kinase (Homo sapiens, UniProt Q9P289); assay: High throughput assay for the Mst4 protein kinase activity; type: biochemical; conditions: FIG. 5C; 25 nM protein kinase; 1.25 μM ADP in control samples
T1 construct: SDS-PAGE analysis of GST-Mst4(1-317) purified from bacterial cells; made in house; host or cells: bacterial cells
T1 sequence (Q9P289 1-317): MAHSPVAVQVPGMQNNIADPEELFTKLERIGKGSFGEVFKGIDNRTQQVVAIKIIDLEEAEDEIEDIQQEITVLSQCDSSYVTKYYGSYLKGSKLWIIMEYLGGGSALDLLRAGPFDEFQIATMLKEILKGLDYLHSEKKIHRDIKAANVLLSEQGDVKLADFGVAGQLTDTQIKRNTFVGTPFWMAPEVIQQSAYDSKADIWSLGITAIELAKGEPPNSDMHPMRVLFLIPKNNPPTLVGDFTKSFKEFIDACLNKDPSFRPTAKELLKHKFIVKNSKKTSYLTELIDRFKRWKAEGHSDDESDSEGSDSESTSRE
Procedure: High throughput assay for the Mst4 protein kinase activity. […] FIG. 5C, inhibition of Mst4 kinase by staurosporine. The assay was performed using 25 nM protein kinase. The combination of Mst4 and ATP was substituted with 1.25 μM ADP in control samples.

Aurora-A = target: T2, Aurora-A (Homo sapiens, UniProt O14965); assay: High throughput fluorometric assay for the TPX2-stimulated protein kinase activity of Aurora-A; type: biochemical; conditions: FIG. 4E; wild type or D274A mutant enzyme at 25 nM or 1.25 μM ADP; 5 μM ATP, 10 mM MgCl2
T2 construct: Aurora-A(101-403) (the latter protein was generated by cleavage of the GST fusion precursor with thrombin); GST (cleaved yes); made in house
T2 sequence (O14965 101-403): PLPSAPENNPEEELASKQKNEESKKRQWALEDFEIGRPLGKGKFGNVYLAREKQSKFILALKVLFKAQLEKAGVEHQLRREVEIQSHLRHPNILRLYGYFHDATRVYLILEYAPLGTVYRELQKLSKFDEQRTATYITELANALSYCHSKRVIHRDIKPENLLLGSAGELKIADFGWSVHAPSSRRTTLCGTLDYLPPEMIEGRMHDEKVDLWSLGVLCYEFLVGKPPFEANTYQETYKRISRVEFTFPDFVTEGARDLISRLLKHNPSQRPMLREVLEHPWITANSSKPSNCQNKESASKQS
T2 sequence (Q9ULW0 1-50 partner limits assumed): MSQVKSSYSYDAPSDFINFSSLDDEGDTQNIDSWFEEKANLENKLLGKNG
Procedure: High throughput fluorometric assay for the TPX2-stimulated protein kinase activity of Aurora-A. All the experiments were conducted using 50 mM Tris-HCl, pH 7.5, 5 μM ATP, 10 mM MgCl2 as the assay buffer. The data shown on FIGS. 4A and 4B were generated using two-step assay procedure including Aurora-A-catalyzed kinase reaction followed by the assay of ADP produced. All other experiments were performed using single step assay format. FIG. 4A, comparative analysis of kinase activities of the wild type enzyme and D274A mutant protein performed in the absence of TPX-2. FIG. 4B, effects of GST-TPX2(1-50) on kinase activity. FIG. 4C, time course of signal development for the assays conducted using 25 nM kinase in the absence or in the presence of 50 nM GST-TPX2(1-50). The D274A mutant enzyme was used as negative control. FIG. 4D, time dependence of S/B ratio calculated using data shown on FIG. 4C. The background was defined as the fluorescence intensity of the samples supplemented with the mutant Aurora-A. FIG. 4E, inhibition of Aurora-A activity by staurosporine. The assays were performed using wild type or D274A mutant enzyme at 25 nM concentrations or 1.25 μM ADP. FIG. 4F, SDS-PAGE analysis of the recombinant GST-TPX2(1-50) and Aurora-A(101-403) (the latter protein was generated by cleavage of the GST fusion precursor with thrombin).

## CN[C@@H]1C[C@H]2O[C@@](C)([C@@H]1OC)n1c3ccccc3c3c4c(c5c6ccccc6n2c5c31)C(=O)NC4 [staurosporine]
Mst4 kinase
  inhibition of Mst4 kinase: inhibition
Aurora-A
  inhibition of Aurora-A activity: inhibition
